The text below walks through data of US20070270459A1, “Overactive bladder treating drug” (ASTELLAS PHARMA INC., priority 2002, published 2007).

The structures appear in SMILES notation. Counter-ions that a name gives are not always drawn.

For this experiment, the system named is overactive bladder model rat. Nature of the experiment: Cystometry under nonanesthesized condition in overactive bladder model (BOO) rats. Format: in vivo. The source says: (1) Preparation of Overactive Bladder Model Rats
Wistar female rats (6 to 7 weeks old) were employed for the preparation. A catheter was inserted into the urinary bladder through the external urethral orifice under anesthesia with sodium pentobarbital in rats. After subjecting the abdominal region to the median section, the proximal urethra was ligated together with the catheter at 2 sites by a silk blade (5-0), and the catheter was removed.
(2) Cystometry Under Nonanesthesized Condition
At more than 6 weeks after surgery, the silk blade used for ligation of the urethra was removed under anesthesia with sodium pentobarbital. A catheter for infusion of physiological saline and for the measurement of the intravesical pressure was inserted into the urinary bladder through the top part of the urinary bladder and fixed. A catheter for administration of a drug was inserted into the jugular vein, and the rat was returned to a housing cage after recovery. At 2 days after surgery, the catheter inserted into the urinary bladder was connected to a syringe pump for continuous infusion of physiological saline (7-20 mL/hr) to induce the micturition reflex and to a pressure transducer to measure the intravesical pressure with a three way stopcock. After the micturition reflex was stabilized, physiological saline or a drug was administered through the catheter for administration of a drug inserted into the jugular vein.
As the parameters evaluated, the frequency of contraction before micturition (the number of contractions for 10 min before starting of micturition), contraction pressure (mean contraction pressure for 10 min before starting of micturition), micturition pressure and interval of micturition were employed for the present test. The effect of a drug was evaluated on the basis of the inhibition ratio against the pre-dosing values (prolongation ratio in the micturition interval).
Tamsulosin hydrochloride was administered intravenously in increasing the doses at a common ratio of about 3 (1, 3 and 10 μg/kg). The action of tamsulosin hydrochloride (3 μg/kg) in combination with Solifenacin succinate (3 mg/kg) on each parameter was also evaluated.
Each test was performed at n=5, and the results are expressed as mean±standard error. Student's t-test and Tukey's test were used for comparison between 2 groups and among multiple groups, respectively.

Regarding `O=C(O[C@H]1CN2CCC1CC2)N1CCc2ccccc2[C@@H]1c1ccccc1` [solifenacin succinate, (+)-(1S,3′R)-quinuclidin-3′-yl 1-phenyl-1,2,3,4-tetrahydroisoquinoline-2-carboxylate], under “3 mg/kg i.v., alone”, the “interval of micturition, prolongation ratio” value is listed as 2.6%.

Regarding `CCOc1ccccc1OCCN[C@H](C)Cc1ccc(OC)c(S(N)(=O)=O)c1` [tamsulosin hydrochloride, (R)(−)-5-[2-[[2-(o-ethoxyphenoxy)ethyl]amino]propyl]-2-methoxybenzene-sulfonamide], the “interval of micturition, prolongation ratio” value is, setting by setting: (3 μg/kg i.v., alone) 2.1%; (10 μg/kg intravenous, vs pre-dosing value) 9.2%. Besides, the micturition pressure entry is, setting by setting: (10 μg/kg intravenous) “no influence”; (tamsulosin hydrochloride alone, comparison arm of the combination test (3 μg/kg i.v.)) “no effect”. Besides, the “frequency of contraction before micturition (number of contractions for 10 min before starting of micturition)” value (tamsulosin hydrochloride 1, 3 and 10 μg/kg intravenous, vs pre-dosing values, n=5, FIG. 1A) was “inhibited in a dose-dependent manner”. For the same molecule, the “contraction pressure before micturition (mean contraction pressure for 10 min before starting of micturition)” value (tamsulosin hydrochloride 1, 3 and 10 μg/kg intravenous, vs pre-dosing values, n=5, FIG. 1B) is on record as “inhibited in a dose-dependent manner”.
